According to patent US20040072882A1 (priority 2002, published 2004):
Entries after “also recorded” stand apart in the source; their conditions may differ. Read-outs that look alike come from different tables or passages of the source.

What was measured:
[1] = tested on: microtubules in interphase cells (PBMC's); assay: Microtubule bundle formation in mononuclear cells (PBMC's) isolated from treated patients, immunofluorescence; type: in vivo, human
Excerpt: The activity of the drug can be assessed by measuring bundling of microtubules in interphase cells. This is considered the hallmark of activity of microtubule-stabilizing agents such as paclitaxel. The bundle formation can readily be measured by immunofluorescence or Western blotting. In a typical determination, whole blood is collected from patients and mononuclear cells (PBMC's) are isolated for evaluation of bundle formation.
In addition to monitoring toxicity and pharmacokinetics, the pharmacodynamics of treatment was also monitored. The standard criterion is the ability of the drug to effect bundling of microtubules in interphase cells. Whole blood was collected from patients and mononuclear cells (PBMC's) were isolated. To measure bundle formation, the PBMC's were resuspended in 5% FBS/PBS containing 0.75×10^6 cells/mL and used to make cytospin preparations. The cells were then fixed in 100% methanol for 10 minutes at […], air dried and stored at 4° C. prior to immunostaining. For immunostaining, the cells were blocked in 10% Normal Goat Serum in PBS for 20 minutes and incubated with a 1:100 dilution of {tilde over (□)}tubulin monoclonal antibody diluted in 5% Normal Goat Serum in PBS for 1 hour at 37° C. The slides were then rinsed in PBS and incubated with 1:200 Cy3-conjugated goat anti-mouse IgG for 1 hour in the dark before mounting. Cell numbers were quantified using a Zeiss AXIOSCOP microscope and evaluated at levels of 500 cells per slide by individual investigators.

[2] = tested on: advanced malignancy, either primary or metastatic; assay: Tumor assessment / tumor markers in patients with advanced malignancy; type: in vivo, human
Excerpt: Other criteria included adequate liver, renal and hematopoietic function, i.e., recovery from reversible effects of previous therapies, if any. Subjects included in the study provided their informed consent.
Approximately 52 patients meeting the above-described criteria were enrolled in the study. Of the patients treated, approximately 60% were male and 40% female, ranging in age from 23 to 85 years. A wide range of tumor types were included in the study, including colon, ovarian, prostate, and lung tumors. Most of the enrollees had received multiple rounds of other chemotherapies prior to entering the study.
(§1) H1/H2 blockers were given orally to the subjects 30-60 minutes prior to infusion to prevent any adverse reactions to the CREMOPHOR® in the composition. […] Thus, a dosage of 9 mg/m^2 required about 10-15 minutes of infusing, while a dose of 150 mg/m^2 required 3-4 hours of dosing. The patients were monitored by testing CBC with differential weekly, various laboratory tests every three weeks, and physical exams including neurological assessment every three weeks. Tumor assessments were made every six weeks.

[3] = Pharmacokinetics of epothilone D in patients (plasma levels by LC/MS/MS after intravenous infusion); type: in vivo, human
Method: as §1
Both the pharmacokinetics and pharmacodynamics of epothilone D were measured in the subjects. Plasma concentration as a function of time was measured in the first- and second cycles at various dose levels in several subjects.
As would be expected, the levels at the end of infusion are high and taper off gradually, and the concentration levels at any particular time are dose-dependent.

[4] = Toxicity monitoring in the patient study; type: in vivo, human
Excerpt: In order to ensure that toxic limits are not exceeded, the effects of the administration on the subject are monitored. Possible effects include neurological impairment(s), which may manifest itself as cognitive/perceptual abnormalities, numbness in the limbs, difficulty in walking, dizziness, and the like. […] Other side effects may include nausea and vomiting, fatigue, rash, alopecia, and alteration in vital signs such as orthostatic hypotension.
H1/H2 blockers were given orally to the subjects 30-60 minutes prior to infusion to prevent any adverse reactions to the CREMOPHOR® in the composition. […] The patients were monitored by testing CBC with differential weekly, various laboratory tests every three weeks, and physical exams including neurological assessment every three weeks. Tumor assessments were made every six weeks.

[5] = paclitaxel comparison value; cited from earlier work

Row | Structure (SMILES) | percentage of PBMCs with microtubule bundles ([1]; dosage 18 mg/m^2) [%] | percentage of PBMCs with microtubule bundles ([1]; dosage 120 mg/m^2) [%] | bundle formation at low dosage ([1]; dosage as low as 18 mg/m^2) | disease status in patients receiving multiple cycles (at least four months) ([2]; human, in vivo) | tumor markers ([2]; ovarian, pancreatic, testicular, breast, and biliary diseases) | dependence of the area under the curve (AUC) on dosage ([3]; dose range about 9 mg/m^2 to about 150 mg/m^2, first and second cycles) | half-life ([3]; human, in vivo, intravenous infusion, summary over study, read-out: half-life, mean value) [h] | clearance ([3]; human, in vivo, patients treated at 100 mg/m^2, averaged, read-out: Drug clearance (converted)) [mL/min] | half-life ([3]; human, in vivo, patients treated at 100 mg/m^2, averaged, read-out: elimination half-life (converted)) [h] | Vd ([3]; human, in vivo, patients treated at 100 mg/m^2, averaged, read-out: volume of distribution (Vz)) [L] | difference in pharmacokinetics between cycles ([3]; two cycles, three subjects at 60 mg/m^2) | time of toxicity ([4]; dose level between 9 mg and about 60 mg per m^2) | severity of toxicities ([4]; dose-dependent toxicities) | onset of toxicity ([4]; higher dosages such as 90 mg/m^2 and […]^2) | myelosuppression ([4]; human, in vivo) | volume of distribution (Vz) [5] [L/m^2]
1 | C/C1=C/C[C@@H](/C(C)=C/c2csc(C)n2)OC(=O)C[C@H](O)C(C)(C)C(=O)[C@H](C)[C@@H](O)[C@@H](C)CCC1 [epothilone D, Desoxyepothilone B] | 12 | 55 | Substantial amounts of bundle formation | suggestive of stable disease | Tumor marker reductions were observed | linear correlation | 8 to 10 | 315 | 8.8 ± 2.4 | 232 ± 82 | no discernable difference | start at day five and continue to day 15 | generally of Grade-2 in severity | as soon as the day after infusion is terminated | generally not been seen; also recorded: No clear evidence of myelosuppression was observed | 
2 | CC(=O)O[C@H]1C(=O)[C@@]2(C)[C@H]([C@H](OC(=O)c3ccccc3)[C@]3(O)C[C@H](OC(=O)[C@H](O)[C@@H](NC(=O)c4ccccc4)c4ccccc4)C(C)=C1C3(C)C)[C@]1(OC(C)=O)CO[C@@H]1C[C@@H]2O [paclitaxel] |  |  |  |  |  |  |  |  |  |  |  |  |  |  |  | 140±70
